# According to PubChem BioAssay (NCI):
# Several values for one entry are separate records, joined by “and”; a condition that tells them apart may be missing. Identical values can stand only once.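 Cultured in 96-well plates, cells were exposed to test compound for 48 hours across five concentrations. GI50 = concentration required for 50% inhibition of growth. TGI marks complete inhibition of growth.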
# System: HCC-2998 colon
# Experiment: NCI-60 cell line screen, 48 h
Compound,TGI [µM],GI50 [µM]
Cc1nc2c(ccc3ncccc32)[nH]1,> 100,–
O=C(CCNC12CC3CC(CC(C3)C1)C2)c1ccccc1,26.5,–
Cc1ccsc1C(=S)Nc1ccc(Cl)c(/C=N/OC(C)(C)C)c1,48.5,–
Cc1cc(N(CCC#N)CCC#N)ccc1N=Nc1ccc(S(N)(=O)=O)cc1,> 100,–
CC(=O)[CH-]C(=O)c1ccccc1.CC(=O)[CH-]C(=O)c1ccccc1.CN(C)c1ccc([O-])cc1.CN(C)c1ccc([O-])cc1.Cl.[Ti+4],> 31.6,20.7
CC1(C)C(=O)/C=C\C(=O)C(C)(C)C2=CC=C(O2)C(C)(C)C(=O)/C=C\C(=O)C(C)(C)C2=CC=C1O2,> 100,–
NC(=O)NO.O.O.O.O.O.O.O.O.O.O.O.[Ge].[Ge].[Ge].[Ge].[Ge].[O]=[Ge].[O]=[Ge].[O]=[Ge].[O]=[Ge].[O]=[Ge][OH],> 100,–
CN(C)C(=S)N=C(Nc1ccccc1)Nc1ccccc1,> 100,–
COC(=O)CC[N+]1=CCC(c2ccccc2)(c2ccccc2)O1,> 100,–
CCC[CH2][Sn]([CH2]CCC)([S]c1cccc2cccnc12)[S]c1cccc2cccnc12,0.3,0.144
CCOC(=O)C(C)(C)Oc1ccc2c(-c3ccccc3)cc(=O)oc2c1,> 100,–
CNS(=O)(=O)NNS(=O)(=O)c1ccccc1,> 100,–
Cc1cc(NS(=O)(=O)c2ccc(Nc3c4ccccc4nc4c(C(=O)N5CCN(CCOS(C)(=O)=O)CC5)cccc34)cc2)no1,> 100,–
O=C(O)CCC(NC(=O)c1ccc(Nc2nc3ccccc3nc2-c2cccs2)cc1)C(=O)O (stereo unspecified),> 100,–
NC1=NCCC1(c1ccccc1)c1ccccn1 (stereo unspecified),> 100,–
CC1CCc2nc[nH]c(=O)c21 (stereo unspecified),> 100,> 100
CNC(=S)OCCC(C)CCCC(C)C (stereo unspecified),32.2,–
COC(=O)/C(C#N)=C1\NC(=O)c2ccccc21,> 100,–

# System: PC-3 prostate
# Experiment: NCI-60 cell line screen, 48 h
Compound,TGI [µM],GI50 [µM]
COc1cc2c(c3oc4c(O)cccc4c(=O)c13)CC(C(C)(O)CO)O2 (stereo unspecified),> 100,–
CC(=O)OC1OC([C@@H]2c3cccc(O)c3C(=O)c3c(O)cc(C)cc32)C(O)C(O)C1O (stereo partly specified),–,< 0.01
CN1CCCCC1CCN1c2ccccc2Sc2ccc(Cl)cc21 (stereo unspecified),11.7,3.22
FC(F)(F)c1cccc(Nc2nc(-c3ccccc3)nc3ncccc23)c1,13.2,3.34
O=C(CCNC12CC3CC(CC(C3)C1)C2)c1ccccc1,50.5,–
Cc1ccsc1C(=S)Nc1ccc(Cl)c(/C=N/OC(C)(C)C)c1,> 100,–
COC(=O)CC[N+]1=CCC(c2ccccc2)(c2ccccc2)O1,> 100,–
CC1CCc2nc[nH]c(=O)c21 (stereo unspecified),> 100,> 100

# System: LOX IMVI melanoma
# Experiment: NCI-60 cell line screen, 48 h
Compound,TGI,GI50 [µM]
COc1cc2c(c3oc4c(O)cccc4c(=O)c13)CC(C(C)(O)CO)O2 (stereo unspecified),> 100 µM,–
CC(=O)OC1OC([C@@H]2c3cccc(O)c3C(=O)c3c(O)cc(C)cc32)C(O)C(O)C1O (stereo partly specified),0.0481 µM,< 0.0141
Cc1c(C(=O)C/C(=N/NC(=O)c2ccccc2O)C(=O)Nc2ccccc2C(C)C)[n+](=O)c2ccccc2n1[O-],> 100 µM,–
CCCCCCCCCCCC(=O)OCCOCCOCCOCCOCCOCc1ccccc1,> 100 µM,–
CCCC1C(=O)CCc2c(OC)ccc(OC)c21 (stereo unspecified),> 100 µM,–
O=C(CCc1nc(=S)[nH][nH]1)Nc1cc(Cl)c(Cl)cc1Cl,> 100 µM,–
O=C(Nc1nc2ccc([N+](=O)[O-])cc2s1)C(=O)C(C1OC(=O)c2ccccc21)[N+](=O)[O-] (stereo unspecified),> 100 µM,–
COC(=O)C1(C(C)C)CCc2c(OC)ccc(OC)c2C1=O (stereo unspecified),> 100 µM,–
FC(F)(F)c1cccc(Nc2nc(-c3ccccc3)nc3ncccc23)c1,24.6 µM,4.48
COC(=O)c1ccccc1NC(=O)C(=O)Cc1nc2c3c(ccc2[nH]c1=O)C(=O)c1ccccc1C3=O,44.6 µM,–
Cc1ccc(S(=O)(=O)OC[C@@H]2CO2)cc1,> 100 µM,–
COc1cc2cc(OC)c3cc4c(cc3c2c(OC)c1OC)OCO4,31 µM,–
O=C(CC(=O)c1cccc2ccccc12)C(=O)Nc1ccc(Cl)cc1,> 100 µM,–
C=CCO[C@H]1CO[C@H]2[C@@H]1OC[C@@H]2Oc1ccc(Nc2ccnc(Nc3ccc(O[C@H]4CO[C@H]5[C@@H]4OC[C@@H]5OCC=C)c(Cl)c3)n2)cc1Cl,3.31 µM,1.76
CCCCCCCCCCCCCC(=O)OC(/C=C/C(C)C)C(O)C(O)C(OC)C(=O)NC1CCCCN(C)C1=O (stereo unspecified),6.53 µM and > 49 µM,–
CC1(C(=O)O)CCC[C@@]2(C)C1CC[C@@]1(C)c3cocc3CCC21 (stereo partly specified),> 100 µM,–
